The values that follow come from patent US10858314B2, “Urea derivative or pharmacologically acceptable salt thereof” (KYORIN PHARMACEUTICAL CO., LTD., priority 2015, dated 2020).

In one assay the target is T1, human FPRL1 (Homo sapiens, UniProt P25090).
T1 construct: expressed in transfected cells; host or cells: HEK293 (JCRB9068, NIBIO), transient co-transfection of pCMV-script vectors with Lipofectamine 2000
T1 sequence (P25090 1-351): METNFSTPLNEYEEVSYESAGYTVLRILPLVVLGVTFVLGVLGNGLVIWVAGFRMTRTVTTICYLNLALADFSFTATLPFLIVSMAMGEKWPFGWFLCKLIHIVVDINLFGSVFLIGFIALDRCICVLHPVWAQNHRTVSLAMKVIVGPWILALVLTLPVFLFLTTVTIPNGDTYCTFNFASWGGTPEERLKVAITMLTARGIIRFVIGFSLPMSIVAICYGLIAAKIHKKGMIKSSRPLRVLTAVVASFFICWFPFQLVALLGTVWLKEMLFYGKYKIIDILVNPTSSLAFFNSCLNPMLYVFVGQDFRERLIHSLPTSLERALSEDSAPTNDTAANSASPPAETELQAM
The assay can be described thus: Measurement test of agonist activity on human FPRL1 (test of calcium mobilization in HEK293 cells transfected with human FPRL1 and Gα15). It counts as cell-based. The following applies: read-out: Efficacy EC50. The text has this: Measurement Test of Agonist Activity on Human FPRL1
(1-1) Construction of Human FPRL1 Expression Vector
Human FPRL (SEQ ID NO: 3) was amplified in a PCR reaction from cDNA derived from a monocytic leukemia cell line THP-1 (TIB-202, ATCC) as a template using a forward primer shown in SEQ ID NO: 1, a reverse primer shown in SEQ ID NO: 2, and KOD-plus-ver. 2 (KOD-211, TOYOBO CO., LTD.). […] 2 (LGK-201, TOYOBO CO., LTD.). The ligation product was transformed into DH5α (DNA-901, TOYOBO CO., LTD.), cultured on a 100 μg/mL kanamycin-containing LB medium, and purified with HiSpeed Plasmid Maxi Kit (12662, QIAGEN).
(1-2) Construction of Human Gα15 Expression Vector
2. The amplified PCR product and pCMV-script vector were digested with Hind III and XhoI, and the resultant digest was ligated with Ligation high ver. 2. The ligation product was transformed into DH5α, cultured on a 100 μg/mL kanamycin-containing LB medium, and purified with HiSpeed Plasmid Maxi Kit.
(2-1) Method for Culturing and Subculturing HEK293
HEK293 (JCRB9068, NIBIO) was cultured in an incubator at 5% CO2 and 37° C. using DMEM (11885-092, GIBCO) containing 10% FBS and 1× Penicillin-Streptomycin (15140-122, GIBCO).
(2-2) Introduction of Human FPRL1 and Gα15 Expression Vectors
The cells were inoculated in a Collagen Type 1 coated 6-well plate (4810-010, IWAKI) to 5×10^5 cells/2.5 mL/well and cultured overnight. On the next day, human FPRL1 and Gα15 expression vectors were introduced using Lipofectamine 2000 transfection reagent (11668-019, Life technologies). First, the human FPRL1 and Gα15 expression vectors were diluted with Opti-MEM I Reduced Serum Medium (31985-070, GIBCO) to 2 μg/250 μL/well and Lipofectamine 2000 transfection reagent was diluted with Opti-MEM I Reduced Serum Medium to be 4 μL/250 μL/well. The vectors and reagent were softly diffused, and incubated at room temperature for 5 minutes. The vector solution was mixed with Lipofectamine 2000 transfection reagent in equal amounts. In order to form a complex of the vectors and Lipofectamine 2000 transfection reagent, the mixture was incubated at room temperature for 20 minutes, and added at 500 μL/well to the medium of inoculated cells. The treated cells were cultured for 24 hours, inoculated in Poly-D-Lysine coated 96-well plate (356640, BD Biosciences) at a cell density of 7×10^4 cells/100 μL/well, and cultured for another 24 hours. The resultant cells were used in a measurement test of calcium mobilization in the cells.
(3) Evaluation of Agonist Activity on Human FPRL1 (Test of Calcium Mobilization in Cell)
An appropriate amount of each test compound was first weighed, and dissolved to 10^−2 M by addition of dimethyl sulfoxide (DMSO). […] The plate dispensed with compound solutions was set in Flexstation (Molecular Devices, LLC.) until measurement.
Subsequently, 10 mL of assay buffer and 100 μL of probenecid solution (dissolved by addition of 1 mL of assay buffer to a 250 mM stock) were sufficiently mixed and dissolved in Fluo-4 NW dye mix. The medium of cells inoculated on the previous day was removed, the dissolved Fluo-4 NW dye mix was added in an amount of 90 μL/well, and a reaction was caused in the dark at 37° C. for 45 minutes. The cells after the reaction and chips for addition of the compound were set in Flexstation, and variation in fluorescence intensity over time after addition of the compound was measured [amount of added compound=10 μL (final concentration 10^−5 M to 10^−12 M), excitation wavelength: 485 nm, measured wavelength: 525 nm, 1.5 sec×54 read]. A value was calculated by subtracting a base value during addition of DMSO from the maximum value of relative fluorescence unit, and analyzed. All the measurement data were analyzed with Prism 4 that was a data analysis tool.
(In general: Calcium assays in cells follow changes in intracellular calcium, usually with a dye or a luminescent sensor.)

In assay [1] the test system is neutrophilic infiltration in mouse lung. Kind of assay: Effect on lipopolysaccharide-induced neutrophilic infiltration in mouse lung (BAL fluid neutrophil count). It counts as in vivo. The following applies: oral, 30 minutes before LPS aerosol, BAL fluid neutrophils after 5 hours, mouse (BALB/c, male). Here is the method:
Effect of Lipopolysaccharide Induction on Neutrophilic Infiltration in Mouse Lung
A compound to be tested was orally administrated to a mouse (BALB/c, male), and after 30 minutes, the mouse was placed in a plastic container. Lipopolysaccharide (0.3 mg/mL) dissolved in physiological saline was aerosolized with an ultrasonic wave nebulizer (NE-U17, OMRON Corporation), and exposed to the mouse for 10 minutes. After 5 hours, the anesthetized mouse was sacrificed by exsanguination. A cannula was inserted in the respiratory tract and bronchoalveolar lavage (BAL) with 1 mL of […] liquid containing 0.4% sodium citrate was carried out. This operation was repeated 3 times, to obtain a BAL fluid. The BAL fluid was centrifuged at 4° C. and ×200 g for 5 minutes, and the pellet was suspended in a physiological saline containing 0.1% BSA. The number of white blood cells was counted using Turks solution with a microscope, and the total white blood cell count was calculated. The white blood cells were fixed on a glass slide using Cytospin 3 (Thermo BioAnalysis Japan K. K.). The cells were stained with Diff-Quik (SYSMEX INTERNATIONAL REAGENTS CO., LTD.), and the number thereof was counted with a microscope, and the neutrophil ratio was calculated. The neutrophil ratio was multiplied by the total white blood cell count to calculate the total neutrophil count. An effect of the compound to be tested represents a percentage (%) of suppression ratio relative to the neutrophil count in a control.

The structures appear in SMILES notation.

Regarding `N/C(=N\OCCO)[C@H](Cc1ccc(Cl)cc1)NC(=O)Nc1ccc(Cl)cc1` [Example 22-2, (+)-(S,Z)-3-(4-chlorophenyl)-2-(3-(4-chloro-phenyl)ureido)-N′-(2-hydroxy-ethoxy)propan-imidamide], the EC50 (usually the midpoint of the concentration-response curve) on human FPRL1 amounted to 0.2 nM.

In the case of `CCc1ccc(C[C@H](NC(=O)Nc2ccc(Cl)cc2)c2noc(N(C)CCO)n2)cc1` [Example 1-15, (S)-1-(4-chlorophenyl)-3-(2-(4-ethylphenyl)-1-{5-[(2-hydroxyethyl)(methyl)amino]-1,2,4-oxadiazol-3-yl}ethyl)urea], at human FPRL1, the EC50 is 0.63 nM. Further, the “Suppression Ratio (%)” value in assay [1] (dose 3 mg/kg) is reported as 95.7%.

Regarding `COc1ccc(CC(Cc2nnc(O)o2)NC(=O)Nc2ccc(Cl)cc2)cc1` (centres unmarked) [Example 1-75, 1-(4-chlorophenyl)-3-(1-(5-hydroxy-1,3,4-oxadiazol-2-yl)-3-(4-methoxyphenyl)propan-2-yl)urea], the EC50 on human FPRL1 turned out to be 1.41 nM.

As to `N/C(=N\C(=O)CCO)[C@H](Cc1ccc(Cl)cc1)NC(=O)Nc1ccc(Cl)cc1` [Example 26-5 (B), (S)-N-{3-(4-chlorophenyl)-2-[3-(4-chloro-phenyl)ureido]-1-iminopropyl}-3-hydroxypropan-amide], on human FPRL1, the EC50 was 0.66 nM. In addition, in assay [1] (dose 3 mg/kg), the “Suppression Ratio (%)” value was 86%.

On to `CCc1ccc(C[C@H](NC(=O)Nc2ccc(Cl)cc2)c2nnc(CCO)o2)cc1` [Example 1-73, (−)-(S)-1-(4-chlorophenyl)-3-(2-(4-ethylphenyl)-1-(5-(3-hydroxyethyl)-1,3,4-oxadiazol-2-yl)ethyl)urea], for which the EC50 on human FPRL1 was found to be 0.73 nM.

Turning to `COc1ccc(C[C@H](NC(=O)Nc2ccc(Cl)cc2)c2ocnc2C(=O)N(C)C)cc1` [Example 14-4, (S)-5-(1-(3-(4-chlorophenyl)ureido)-2-(4-methoxyphenyl)-ethyl)-N,N-dimethyloxazole-4-carboxamide], the EC50 on human FPRL1 is 0.3 nM.

For the compound `COc1ccc(C[C@H](CO)NC(=O)Nc2ccc(Cl)cc2)cc1` [Example 31-29], on human FPRL1, the EC50 came to 4.12 nM. In assay [1] (dose 10 mg/kg), the “Suppression Ratio (%)” value was 95.5%.

Consider `COc1ccc(C[C@H](NC(=O)Nc2ccc(Cl)cc2)/C(N)=N/C(=O)CCO)cc1` [Example 26-2, (S)-N-{2-[3-(4-chlorophenyl)-ureido]-1-imino-3-(4-methoxy-phenyl)propyl}-3-hydroxypropanamide], for which the EC50 at human FPRL1 stood at 0.15 nM.

Take `O=C(Nc1ccc(F)cc1)N[C@@H](Cc1ccc(Cl)cc1)c1nnn(CCO)n1` [Example 1-8, (−)-(S)-1-{2-(4-chlorophenyl)-1-[2-(2-hydroxyethyl)-2H-tetrazol-5-yl]ethyl}-3-(4-fluorophenyl)urea]: the EC50 at human FPRL1 came out at 1.37 nM.

Regarding `CN(CCO)c1nc([C@H](Cc2ccc(Cl)cc2)NC(=O)Nc2ccc(Cl)cc2)no1` [Example 18-11, (S)-1-(4-chloro-phenyl)-3-(2-(4-chlorophenyl)-1-(5-((2-hydroxy-ethyl)(methyl)-amino)-1,2,4-oxadiazol-3-yl)ethyl)urea], the EC50 on human FPRL1 turned out to be 0.3 nM.

For the compound `COc1ccc(C[C@H](NC(=O)Nc2ccc(Cl)cc2)c2nnc(CCO)o2)cc1` [Example 1-20, (S)-1-(4-chlorophenyl)-3-{1-[5-(2-hydroxyethyl)-1,3,4-oxadiazol-2-yl]-2-(4-methoxyphenyl)ethyl}urea], on human FPRL1, the 50% effective concentration (EC50) was determined as 0.17 nM. Further, the “Suppression Ratio (%)” value in assay [1] (dose 3 mg/kg) worked out at 94%.

With `O=C(Nc1ccc(Cl)cc1)N[C@@H](Cc1ccc(Cl)cc1)c1nnn(CCO)n1` [Example 1-7, (−)-(S)-1-(4-chlorophenyl)-3-{2-(4-chlorophenyl)-1-[2-(2-hydroxyethyl)-2H-tetrazol-5-yl]ethyl}urea], the EC50 on human FPRL1 worked out at 2.7 nM.

Turning to `COc1ccc(CC(CO)NC(=O)Nc2ccc(Br)cc2)cc1` (centres unmarked) [Example 31-25, 1-(4-bromo-phenyl)-3-(1-hydroxy-3-(4-methoxyphenyl)-propan-2-yl)urea], the EC50 on human FPRL1 worked out at 8.45 nM.

`COc1ccc(CC(NC(=O)Nc2ccc(Cl)cc2)/C(N)=N/C(=O)CO)cc1` (centres unmarked) [Example 26-11, N-{2-[3-(4-chlorophenyl)-ureido]-1-imino-3-(4-methoxy-phenyl)propyl}-2-hydroxyacetamide]: the EC50 on human FPRL1 worked out at 0.41 nM.

Turning to `CNC(=O)c1ncoc1[C@H](Cc1ccc(OC)cc1)NC(=O)Nc1ccc(Cl)cc1` [Example 14-3, (S)-5-(1-(3-(4-chlorophenyl)ureido)-2-(4-methoxyphenyl)ethyl)-N-methyl-oxazole-4-carboxamide], on human FPRL1, the half-maximal effective concentration (EC50) worked out at 0.22 nM.

On to `CCc1ccc(C[C@H](NC(=O)Nc2ccc(Cl)cc2)/C(N)=N/OCCO)cc1` [Example 19-1, (+)-(S,Z)-2-[3-(4-Chlorophenyl)ureido]-3-(4-ethylphenyl)-N′-(2-hydroxyethoxy)propanimidamide], for which the EC50 at human FPRL1 turned out to be 0.56 nM. In addition, the “Suppression Ratio (%)” value in assay [1] (dose 3 mg/kg) came to 96.9%.

Take `COc1ccc(C[C@H](NC(=O)Nc2ccc(Cl)cc2)c2nnn(CCO)n2)cc1` [Example 1-1, (−)-(S)-1-(4-Chlorophenyl)-3-{1-[2-(2-hydroxyethyl)-2H-tetrazol-5-yl]-2-(4-methoxyphenyl)ethyl}urea]: the concentration for a half-maximal effect (EC50) on human FPRL1 stood at 0.25 nM. Besides, the “Suppression Ratio (%)” value in assay [1] (dose 1 mg/kg) is on record as 95.7%.

For the compound `COc1ccc(CC(NC(=O)Nc2ccc(Cl)cc2)/C(N)=N/O)cc1` (centres unmarked) [Example 4], on human FPRL1, the half-maximal effective concentration (EC50) worked out at 0.34 nM.

With `CCc1ccc(C[C@H](NC(=O)Nc2ccc(Cl)cc2)c2nnn(CCO)n2)cc1` [Example 1-11, (S)-1-(4-chlorophenyl)-3-{2-(4-ethylphenyl)-1-[2-(2-hydroxyethyl)-2H-tetrazol-5-yl]ethyl}urea], the 50% effective concentration (EC50) on human FPRL1 was 0.22 nM.

Regarding `N#Cc1ccc(C[C@H](NC(=O)Nc2ccc(Cl)cc2)c2nnn(CCO)n2)cc1` [Example 1-5, (S)-1-(4-chlorophenyl)-3-{2-(4-cyanophenyl)-1-[2-(2-hydroxyethyl)-2H-tetrazol-5-yl]ethyl}urea], the EC50 at human FPRL1 was determined as 0.57 nM.
